Literature values, collected in patent publication US5284873A (priority 1991, dated 1994).

System: prostate
Settings: treatment of the α-receptors with antagonists

SMILES | improvement in prostate patients
CC(COc1ccccc1)N(CCCl)Cc1ccccc1 (centres unmarked) [phenoxybenzamine] | effective improvement
COc1cc2nc(N3CCN(C(=O)c4ccco4)CC3)nc(N)c2cc1OC [prazosin] | effective improvement
